Measurements from patent US20230399324A1, “AGENTS FOR TREATING DISORDERS INVOLVING RYANODINE RECEPTORS” (ARMGO Pharma, Inc., priority 2020, published 2023).
Where “and” joins values, the source holds several entries; their conditions need not be identical. Equal entries are not always repeated. Entries after “also recorded” stand apart in the source; their conditions may differ. Where two headings read alike, the source gives them in different places.

What was measured:
[1] = test system: cardiomyocytes isolated from mouse heart; assay: Inhibition of unstimulated calcium release events in cardiomyocytes (isoproterenol-induced); format: cell-based, C57BL/6 mice; settings: Cardiomyocyte, 10 μM compound, isoproterenol 1 uM, percent inhibition of controls B vs A
Procedure: Compounds of the disclosure were evaluated for an effect on isoproterenol-induced inhibition of unstimulated calcium release events in cardiomyocytes isolated from mouse heart.
Adult cardiomyocytes are isolated from female, 28-32 grams C57BL/6 mice using a perfusion solution containing Liberase TH (Sigma Aldrich, #05-401-151001). After isolation, Ca^2+ is reintroduced in 5 steps at 4 min intervals. Then cells are plating (Time Cero) with a density of 5000-7000 rod cells in 100 μl of Cardiomyocyte Culture Medium (MEM, Invitrogen, #11575-032) containing Blebbistatin and compound treatment at various concentrations (0.01 to 10 uM). After 1 hrs of compound treatment cells are treated with Isoproterenol (1 uM). After 2 hrs of compound treatment cells are loaded with a Ca^2+ indicator (Fluo-4-AM, Invitrogen #F14202). After 3 hrs of compound treatment MEM is quickly but gently removed and the cells re-suspended in recording solution (Ca^2+ 2 mM, Isoproterenol 1 uM) for field stimulations using custom-designed electrodes. Cells are stimulated for 20 seconds at 0.5 Hz, then for 5 seconds at 5 Hz.
One Study=3 experiments. One experiment=1 mouse. Each experiment has 3 controls in triplicate: • A) Ca^2+ • B) Ca^2++Isoproterenol • C) Ca^2++Isoproterenol+Control Compound.
The first step in the analysis is to determine the number of responders based on four conditions. Responders are then analyzed to determine the number of unstimulated calcium release events, which are peaks of sufficient intensity, measured in the post-5 Hz stimulation period. Effect of test compounds (Ca^2++Isoproterenol+Test Compound in triplicate) are expressed as a percent inhibition of the controls B vs A.
All compounds were tested at 10 μM.

RyR2 [2] = target: T1, RyR2 (Homo sapiens, UniProt Q92736); assay: Calstabin2 binding to RyR2 immunoprecipitated from human HD cortex lysate (immunoblot); settings: FIG. 1
Procedure: Brain microsomes were prepared from human hippocampus and cortex samples taken from HD patients. Control samples were from patients that were negative in neuropathological diagnoses.
RyR2 was immunoprecipitated from Cortex lysate (+/−various concentrations of Compound 2) with an RyR2 specific antibody (2 μg) in 0.5 ml of a modified RIPA buffer (50 mM Tris-HCl pH 7.2 0.9% NaCl, 5.0 mM NaF, 1.0 mM Na3VO4, 1% Triton-X100, and protease inhibitors) and left overnight at 4° C. The immune complexes were incubated with protein A Sepharose beads at 4° C. for 1 h and the beads are washed three times with RIPA buffer. […] Immunoblots were developed using antibodies against RyR and Calstabin.

RyR2 [3] = target: T1, RyR2; assay: 35S-labelled Calstabin2 binding to human HD cortex microsomes, dose curve; settings: FIG. 2
Target sequence in this assay (Q92736 whole entry): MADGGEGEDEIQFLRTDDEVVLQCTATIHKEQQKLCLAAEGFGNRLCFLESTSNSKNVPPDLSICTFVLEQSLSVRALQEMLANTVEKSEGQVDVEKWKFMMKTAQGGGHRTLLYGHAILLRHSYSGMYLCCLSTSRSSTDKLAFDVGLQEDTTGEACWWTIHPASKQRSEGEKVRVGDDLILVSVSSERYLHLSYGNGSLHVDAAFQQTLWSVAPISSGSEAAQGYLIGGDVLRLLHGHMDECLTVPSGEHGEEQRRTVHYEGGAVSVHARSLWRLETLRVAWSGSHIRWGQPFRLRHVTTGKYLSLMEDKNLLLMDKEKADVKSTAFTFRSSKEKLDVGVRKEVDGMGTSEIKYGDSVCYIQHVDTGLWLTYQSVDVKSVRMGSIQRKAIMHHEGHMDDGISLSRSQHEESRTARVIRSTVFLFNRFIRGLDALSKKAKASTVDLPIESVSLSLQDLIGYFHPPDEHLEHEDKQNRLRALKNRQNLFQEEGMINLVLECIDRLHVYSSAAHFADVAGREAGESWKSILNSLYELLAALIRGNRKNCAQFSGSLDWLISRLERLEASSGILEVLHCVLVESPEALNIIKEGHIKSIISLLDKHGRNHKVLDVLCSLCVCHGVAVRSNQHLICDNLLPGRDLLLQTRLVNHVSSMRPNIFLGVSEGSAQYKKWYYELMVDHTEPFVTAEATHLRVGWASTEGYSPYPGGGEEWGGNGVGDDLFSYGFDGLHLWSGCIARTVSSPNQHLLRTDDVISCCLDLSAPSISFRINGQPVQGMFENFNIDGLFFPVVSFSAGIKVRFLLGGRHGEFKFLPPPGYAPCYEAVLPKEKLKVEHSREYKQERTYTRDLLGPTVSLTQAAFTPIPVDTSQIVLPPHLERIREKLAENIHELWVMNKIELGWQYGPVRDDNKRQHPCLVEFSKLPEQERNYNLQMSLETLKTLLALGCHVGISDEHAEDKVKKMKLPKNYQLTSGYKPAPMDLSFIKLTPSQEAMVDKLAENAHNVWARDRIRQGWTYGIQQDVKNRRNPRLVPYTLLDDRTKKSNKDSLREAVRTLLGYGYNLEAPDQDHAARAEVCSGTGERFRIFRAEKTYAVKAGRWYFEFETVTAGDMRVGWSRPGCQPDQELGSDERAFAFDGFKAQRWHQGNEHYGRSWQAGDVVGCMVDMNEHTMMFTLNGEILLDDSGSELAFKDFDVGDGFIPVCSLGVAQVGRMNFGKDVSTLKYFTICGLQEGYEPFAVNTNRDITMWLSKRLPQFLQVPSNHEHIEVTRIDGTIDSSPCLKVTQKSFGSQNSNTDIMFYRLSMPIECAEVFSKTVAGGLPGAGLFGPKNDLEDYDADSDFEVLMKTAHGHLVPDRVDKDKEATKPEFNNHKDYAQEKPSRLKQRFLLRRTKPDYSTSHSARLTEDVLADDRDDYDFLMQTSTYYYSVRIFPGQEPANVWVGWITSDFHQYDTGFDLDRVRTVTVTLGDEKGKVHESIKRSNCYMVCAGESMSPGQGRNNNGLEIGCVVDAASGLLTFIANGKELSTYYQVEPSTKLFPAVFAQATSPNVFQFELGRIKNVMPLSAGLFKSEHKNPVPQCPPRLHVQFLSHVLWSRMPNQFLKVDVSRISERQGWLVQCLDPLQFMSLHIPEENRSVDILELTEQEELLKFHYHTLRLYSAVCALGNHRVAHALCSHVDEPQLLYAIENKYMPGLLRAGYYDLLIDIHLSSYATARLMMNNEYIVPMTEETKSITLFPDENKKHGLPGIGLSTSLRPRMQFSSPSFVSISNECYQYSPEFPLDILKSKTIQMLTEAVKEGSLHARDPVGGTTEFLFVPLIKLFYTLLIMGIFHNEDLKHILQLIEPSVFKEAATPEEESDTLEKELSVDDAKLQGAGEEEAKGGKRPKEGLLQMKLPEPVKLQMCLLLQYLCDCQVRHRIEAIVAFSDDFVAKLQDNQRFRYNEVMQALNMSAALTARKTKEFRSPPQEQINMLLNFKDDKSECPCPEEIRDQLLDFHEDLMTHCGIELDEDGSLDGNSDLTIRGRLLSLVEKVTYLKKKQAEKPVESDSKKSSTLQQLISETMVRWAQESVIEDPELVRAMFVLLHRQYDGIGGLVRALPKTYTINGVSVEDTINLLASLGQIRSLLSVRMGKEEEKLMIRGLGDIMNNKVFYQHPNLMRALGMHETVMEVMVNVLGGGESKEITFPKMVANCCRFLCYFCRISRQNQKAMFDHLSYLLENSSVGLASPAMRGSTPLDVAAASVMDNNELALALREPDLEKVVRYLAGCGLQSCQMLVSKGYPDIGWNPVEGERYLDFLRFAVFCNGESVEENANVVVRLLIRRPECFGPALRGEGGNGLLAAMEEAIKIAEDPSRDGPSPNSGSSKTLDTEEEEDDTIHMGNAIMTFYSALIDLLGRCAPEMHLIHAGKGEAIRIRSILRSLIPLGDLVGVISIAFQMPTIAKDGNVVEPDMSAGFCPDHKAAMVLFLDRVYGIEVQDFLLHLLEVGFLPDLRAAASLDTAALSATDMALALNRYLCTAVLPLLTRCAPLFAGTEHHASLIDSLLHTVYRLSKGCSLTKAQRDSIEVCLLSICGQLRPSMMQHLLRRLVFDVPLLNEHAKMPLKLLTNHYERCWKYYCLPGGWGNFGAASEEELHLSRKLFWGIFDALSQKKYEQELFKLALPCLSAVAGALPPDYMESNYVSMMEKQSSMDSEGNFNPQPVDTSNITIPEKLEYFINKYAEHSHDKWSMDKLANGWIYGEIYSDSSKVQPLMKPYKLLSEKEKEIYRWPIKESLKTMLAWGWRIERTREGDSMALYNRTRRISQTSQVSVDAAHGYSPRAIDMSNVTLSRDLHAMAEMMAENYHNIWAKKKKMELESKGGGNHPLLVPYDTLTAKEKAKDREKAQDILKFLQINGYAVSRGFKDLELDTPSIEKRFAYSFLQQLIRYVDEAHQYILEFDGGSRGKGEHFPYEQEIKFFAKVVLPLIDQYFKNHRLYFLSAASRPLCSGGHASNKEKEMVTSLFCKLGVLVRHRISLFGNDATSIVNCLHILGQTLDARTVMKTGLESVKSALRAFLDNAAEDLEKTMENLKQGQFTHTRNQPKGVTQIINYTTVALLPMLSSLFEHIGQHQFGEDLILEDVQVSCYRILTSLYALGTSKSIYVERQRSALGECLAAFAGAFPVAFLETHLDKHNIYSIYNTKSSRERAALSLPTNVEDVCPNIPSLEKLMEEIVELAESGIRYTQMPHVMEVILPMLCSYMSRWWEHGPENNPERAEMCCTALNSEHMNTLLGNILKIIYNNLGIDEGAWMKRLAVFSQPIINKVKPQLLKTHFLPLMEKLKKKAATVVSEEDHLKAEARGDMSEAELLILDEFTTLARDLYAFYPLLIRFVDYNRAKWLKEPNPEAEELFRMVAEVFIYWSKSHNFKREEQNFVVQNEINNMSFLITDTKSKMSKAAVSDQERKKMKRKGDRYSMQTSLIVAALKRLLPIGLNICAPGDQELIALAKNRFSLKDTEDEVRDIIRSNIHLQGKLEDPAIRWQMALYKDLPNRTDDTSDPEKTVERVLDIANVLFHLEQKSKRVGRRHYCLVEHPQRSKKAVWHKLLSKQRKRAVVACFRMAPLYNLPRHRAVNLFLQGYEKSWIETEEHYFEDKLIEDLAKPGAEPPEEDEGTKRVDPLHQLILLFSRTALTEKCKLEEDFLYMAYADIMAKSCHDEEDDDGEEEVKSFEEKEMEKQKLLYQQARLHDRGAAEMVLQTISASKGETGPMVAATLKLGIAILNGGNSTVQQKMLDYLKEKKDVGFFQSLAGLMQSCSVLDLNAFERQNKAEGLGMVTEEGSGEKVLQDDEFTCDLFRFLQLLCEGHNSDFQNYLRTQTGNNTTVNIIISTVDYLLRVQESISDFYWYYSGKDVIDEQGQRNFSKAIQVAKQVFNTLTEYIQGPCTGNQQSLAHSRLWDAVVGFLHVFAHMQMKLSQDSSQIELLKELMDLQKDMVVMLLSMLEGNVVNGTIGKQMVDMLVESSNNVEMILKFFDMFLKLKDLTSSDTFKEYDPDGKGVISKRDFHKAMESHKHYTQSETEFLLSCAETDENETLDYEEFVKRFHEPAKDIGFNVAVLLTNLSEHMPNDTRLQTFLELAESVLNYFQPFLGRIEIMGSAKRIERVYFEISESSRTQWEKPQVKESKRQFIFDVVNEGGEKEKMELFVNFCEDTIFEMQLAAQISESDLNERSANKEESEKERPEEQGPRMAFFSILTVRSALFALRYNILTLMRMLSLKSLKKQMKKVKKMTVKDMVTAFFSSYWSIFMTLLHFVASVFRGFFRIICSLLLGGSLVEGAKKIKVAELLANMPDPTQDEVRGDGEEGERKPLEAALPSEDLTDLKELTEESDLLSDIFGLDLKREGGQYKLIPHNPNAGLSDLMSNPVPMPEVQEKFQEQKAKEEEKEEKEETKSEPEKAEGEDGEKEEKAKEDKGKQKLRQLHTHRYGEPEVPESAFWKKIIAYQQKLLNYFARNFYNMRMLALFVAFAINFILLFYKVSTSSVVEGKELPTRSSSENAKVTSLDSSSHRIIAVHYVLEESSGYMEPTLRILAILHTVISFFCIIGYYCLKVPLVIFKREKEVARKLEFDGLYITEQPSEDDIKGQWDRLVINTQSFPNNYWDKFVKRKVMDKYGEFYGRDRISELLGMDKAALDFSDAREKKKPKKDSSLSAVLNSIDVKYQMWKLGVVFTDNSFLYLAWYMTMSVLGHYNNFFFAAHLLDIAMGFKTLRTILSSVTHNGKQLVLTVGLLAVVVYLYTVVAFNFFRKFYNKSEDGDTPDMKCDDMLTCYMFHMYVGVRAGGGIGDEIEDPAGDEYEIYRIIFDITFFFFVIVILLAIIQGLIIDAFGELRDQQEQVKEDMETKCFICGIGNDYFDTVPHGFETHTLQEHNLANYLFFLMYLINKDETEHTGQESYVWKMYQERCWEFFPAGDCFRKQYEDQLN
Target sequence in this assay (P68106 whole entry, further chain): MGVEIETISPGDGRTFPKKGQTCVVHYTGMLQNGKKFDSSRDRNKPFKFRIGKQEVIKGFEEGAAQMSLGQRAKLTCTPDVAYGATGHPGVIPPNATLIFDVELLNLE

RyR2 [4] = target: T1, RyR2; assay: biochemical
Target sequence in this assay (Q92736 whole entry): as the sequence (Q92736 whole entry) above
Target sequence in this assay (P68106 whole entry, further chain): as the sequence (P68106 whole entry, further chain) above

[5] = Oral bioavailability and pharmacokinetics in blood plasma after oral gavage; format: in vivo, Sprague-Dawley rats; settings: Sprague-Dawley; for Cmax: po
Procedure: (§1) Analytical instrument: Waters Acquity Class H UPLC equipped with Waters SQ3100 mass detector.
1). Initial non-terminal assessment of compound oral bioavailability and pharmacokinetics in blood plasma.
Sprague-Dawley rats were dosed via oral gavage (20 mg/kg); blood samples were drawn at 30 min, 1 h, 4 h and 12 h and plasma concentrations were determined via UPLC/MS. The 12-hour exposure (AUC12, Table 2) was determined via trapezoidal integration of the observed concentrations.
(§2) The concentration results were used to estimate PK parameters (i.e. C0, T1/2, Vd, AUCinf) based on noncompartmental distribution and mono-exponential concentration decay. The half-life value thus obtained was also used to estimate the AUCinf for the PO dosing.

[6] = Morning and evening plasma and brain exposure after 1-week dosing in drinking water; format: in vivo; settings: rat; for Brain / Plasma: 1 week
[7] = Brain exposure: brain and plasma concentrations 4 h after oral administration; format: in vivo; settings: Sprague-Dawley, rat, PO 20 mg/kg; for concentration at 4 h: terminal sampling
Procedure: as §1
Brain and plasma concentrations 4 h after oral administration (corresponding to Tmax in the first experiment) were determined via UPLC/MS, and the corresponding brain-to-plasma ratio values were calculated.

[8] = Pharmacokinetics by intravenous (IV) dosing (tail vein); format: in vivo, rat
Procedure: Additional PK parameters were obtained using IV dosing to complement the oral PK data and to determine absolute oral bioavailability. Compounds were administered via tail vein injection and blood samples were obtained at 30 min, 1 h, 4 h and 12h. The drug concentration in plasma was determined via UPLC/MS.
as §2

RyR = RyR mediated calcium leak from human HD cortex microsomes (Fluo-4, thapsigargin); format: biochemical; settings: thapsigargin 3 μM, FIG. 3
Procedure: Human cortex Microsomes (5 μg/ml) were diluted into a 20 mM HEPES buffer (pH 7.2) containing 7 mM NaCl, 1.5 mM MgCl2, 120 mM K-gluconate, 5 mM K-phosphate, 8 mM K-phosphocreatine, 1 μM EGTA and 2 μM CaCl2) mixed with 3 μM Fluo-4 and added to multiple wells of a 96-well plate. Calcium (Ca^2+) loading of the microsomes was initiated by adding 1 mM ATP. After Ca^2+ uptake, 3 μM thapsigargin was added. (A)—Representative traces of Ca^2+ leak from Human cortex microsomes induced by addition of thapsigargin (3 μM). (B)—Ca^2+ leak was calculated as the percent increase in signal after addition of thapsigargin. Data (mean±SEM) analysis was performed by Student t-test (n=2 for each group) **P<0.01.

[9] = 5 mg/kg/day in drinking water, 7:00AM, 5 mg/kg/day
[10] = 5 mg/kg/day in drinking water, 7:00PM, 5 mg/kg/day
[11] = 20 mg/kg/day in drinking water, 7:00AM, 20 mg/kg/day
[12] = 20 mg/kg/day in drinking water, 7:00PM, 20 mg/kg/day

O=C(N1CCNCC1)N1CCSc2cc(C(F)(F)F)ccc2C1 [Compound 1, piperazin-1-yl(8-(trifluoromethyl)-2,3-dihydrobenzo[f][1,4]thiazepin-4(5H)-yl)methanone]
inhibition at 10 µM [1]: 95 to 96%

O=C(N1CCNCC1)N1CCSc2ccc(C(F)(F)F)cc2C1 [Compound 2, piperazin-1-yl(7-(trifluoromethyl)-2,3-dihydrobenzo[f][1,4]thiazepin-4(5H)-yl) methanone]
Calstabin2/RyR2 binding in HD brain microsome lysates (RyR2 [2]): improves Calstabin2/RyR2 binding; also recorded: improves Calstabin rebinding to RyR2
Calstabin2 binding to HD microsomes, concentration dependence (RyR2 [3]): increase Calstabin2 binding to HD microsomes in a concentration dependent manner
EC50 (RyR2 [4]): 100 nM
AUC(0-inf) ([5]; rat, plasma, oral, 20 mg/kg): 2730 ng·h/mL
Cmax ([5]; rat, plasma, 20 mg/kg, rat plasma, PO 20 mg/kg, Table 4 summary, read-out: Cmax C4 h): 320 ng/mL
Cmax ([5]; rat, plasma, 20 mg/kg, rat plasma, PO 20 mg/kg, read-out: Cmax): 210 ng/mL and 610 nM
Tmax ([5]; rat plasma, PO 20 mg/kg): 4 h
AUC(0-t) ([5]; rat plasma, PO 20 mg/kg, 12 h, trapezoidal, read-out: AUCt (12 h)): 2090 ng·h/mL and 6.06 µM·h
Brain [6, 9]: 0.50 ± 0.12 μg/g and 1.44 ± 0.36 μM
Plasma [6, 9]: 0.09 ± 0.03 μg/mL and 0.25 ± 0.08 μM
Brain [6, 10]: 0.12 ± 0.08 μg/g and 0.36 ± 0.22 μM
Plasma [6, 10]: 0.02 ± 0.01 μg/mL and 0.07 ± 0.02 μM
Brain [6, 11]: 3.05 ± 0.71 μg/g and 8.82 ± 2.05 μM
Plasma [6, 11]: 0.42 ± 0.02 μg/mL and 1.22 ± 0.05 μM
Brain [6, 12]: 1.20 ± 0.96 μg/g and 3.48 ± 2.79 μM
Plasma [6, 12]: 0.20 ± 0.12 μg/mL and 0.58 ± 0.36 μM
brain exposure after a week of dosing ([6]; 1 week in drinking water): has brain exposure
plasma and tissue exposure levels, morning versus evening ([6]; 1 week in drinking water): higher in the morning than in the evening
concentration at 4 h ([7]; brain, read-out: Brain C4 h): 2160 ng/g and 6.25 µM
Kp at 4 h ([7]; brain/plasma): 5.1
concentration at 4 h ([7]; plasma, read-out: Plasma C4 h): 420 ng/mL and 1.22 µM
inhibition at 10 µM [1]: 86 to 94%
Vd ([8]; plasma, rat, IV bolus 2 mg/kg): 10.9 L/kg
half-life ([8]; plasma, rat, IV bolus 2 mg/kg, read-out: T½ (converted)): 2.77 h
AUC(0-inf) ([8]; rat plasma, IV bolus 2 mg/kg): 736 ng·h/mL
concentration at 30 min ([8]; rat plasma, IV bolus 2 mg/kg, 30 min, read-out: C 1st time (30 min)): 180 ng/mL
F % PO/IV bolus ([8]; rat, PO 20 mg/kg vs IV bolus 2 mg/kg): 37%
calcium leak from HD microsomes (RyR): decreases calcium leak from HD microsomes

O=C(N1CCNCC1)N1CCSc2c(cccc2C(F)(F)F)C1 [Compound 3, piperazin-1-yl(9-(trifluoromethyl)-2,3-dihydrobenzo[f][1,4]thiazepin-4(5H)-yl)methanone]
inhibition at 10 µM [1]: 85%

O=C(N1CCNCC1)N1CCSc2ccc(OC(F)(F)F)cc2C1 [Compound 4, piperazin-1-yl(7-(trifluoromethoxy)-2,3-dihydrobenzo[f][1,4]thiazepin-4(5H)-yl)methanone]
inhibition at 10 µM [1]: 142%

O=C(N1CCNCC1)N1CCSc2cccc(C(F)(F)F)c2C1 [Compound 5, piperazin-1-yl(6-(trifluoromethyl)-2,3-dihydrobenzo[f][1,4]thiazepin-4(5H)-yl)methanone]
inhibition at 10 µM [1]: 92%

O=C(N1CCNCC1)N1CCSc2cc(F)c(F)cc2C1 [Compound 6, (7,8-difluoro-2,3-dihydrobenzo[f][1,4]thiazepin-4(5H)-yl)(piperazin-1-yl)methanone]
inhibition at 10 µM [1]: 71%

O=C(N1CCNCC1)N1CCSc2cccc(Cl)c2C1 [Compound 7, (6-chloro-2,3-dihydrobenzo[f][1,4]thiazepin-4(5H)-yl)(piperazin-1-yl)methanone]
inhibition at 10 µM [1]: 89%

O=C(N1CCNCC1)N1CCSc2cccc(OC(F)(F)F)c2C1 [Compound 8, piperazin-1-yl(6-(trifluoromethoxy)-2,3-dihydrobenzo[f][1,4]thiazepin-4(5H)-yl)methanone]
inhibition at 10 µM [1]: 80%

O=C(N1CCNCC1)N1CCSc2cccc(Br)c2C1 [Compound 9, (6-bromo-2,3-dihydrobenzo[f][1,4]thiazepin-4(5H)-yl)(piperazin-1-yl)methanone]
inhibition at 10 µM [1]: 89%

O=C(N1CCNCC1)N1CCSc2cccc(I)c2C1 [Compound 10, (6-iodo-2,3-dihydrobenzo[f][1,4]thiazepin-4(5H)-yl)(piperazin-1-yl)methanone]
inhibition at 10 µM [1]: 74%

COc1ccc2c(c1)CN(C)CCS2 [Compound S107, reference compound]
Calstabin2 binding to HD microsomes, concentration dependence (RyR2 [3]): increase Calstabin2 binding to HD microsomes in a concentration dependent manner
